Reference: the Deep4Chem optical property database
Each block holds one compound with its values, some of them ahead of it.

Assay: solvent given as SMILES
[1] = in O=P(c1ccccc1)(c1ccccc1)c1ccccc1Oc1ccccc1P(=O)(c1ccccc1)c1ccccc1

fluorescence lifetime (in ClCCl): 1.52 ns
SMILES: CCCCC(CC)COc1ccc2nc(-c3ccc(-c4ccc(OC)cc4)s3)sc2c1 (stereo unspecified)

fluorescence lifetime (in CCO): 1.82 ns
SMILES: Cc1cc(-c2nnc(-c3ccccc3)o2)ccc1-n1c2ccccc2c2ccccc21

fluorescence lifetime (in ClCCl): 6.3 ns
SMILES: CCCCCCCCCCCCN1C(=O)c2c(c3ccc4cc(-c5ccc(C#N)cc5)c(OC)cc4c3c3c2ccc2cc(-c4ccc(C#N)cc4)c(OC)cc23)C1=O

fluorescence lifetime (in ClCCl): 0.1 ns
SMILES: N#C/C(=C\c1ccc(-c2ccncc2)cc1)c1ccc(-c2ccncc2)cc1

fluorescence lifetime (in ClC(Cl)Cl): 0.72 ns
SMILES: CC[N+](CC)=c1ccc2c(-c3ccccc3C(=O)O)c3cc4c(-c5ccccc5C(=O)O)c5ccc(=[N+](CC)CC)cc-5oc4cc3oc-2c1

fluorescence lifetime (in ClCCl): 1.5 ns
SMILES: O=S1(=O)c2ccccc2C2(c3cc(-c4ccc(N(c5ccccc5)c5ccccc5)cc4)ccc3-c3ccc(-c4ccc(N(c5ccccc5)c5ccccc5)cc4)cc32)c2ccccc21

fluorescence lifetime (in CC#N): 232 ns
fluorescence lifetime (in CO): 119 ns
fluorescence lifetime (in ClC(Cl)Cl): 38 ns
SMILES: NCc1ccc2ccc3cccc4ccc1c2c34

fluorescence lifetime (in ClC(Cl)Cl): 3.11 ns
SMILES: CC1=CC(C)=[N+]2C1=C(c1ccc(I)cc1)c1c(C)cc(C)n1[B-]2(F)F

fluorescence lifetime (in C1CCCCC1): 8.18 ns
SMILES: c1cc2c3c(c1)OCCCCCCCOc1cccc(c1-c1c4ccccc4c-3c3ccccc13)OCCCCCCCO2

fluorescence lifetime (in CCCCCC): 54.7 ns
fluorescence lifetime (in CO): 64.5 ns
fluorescence lifetime (in ClCCl): 37.6 ns
SMILES: Cc1ccc2ccc3c(C)ccc4ccc1c2c43

fluorescence lifetime (in CS(C)=O): 0.55 ns
SMILES: Brc1ccc(-c2nc(-c3ccc(-c4nc(-c5ccc(Br)cc5)c(-c5ccc(Br)cc5)[nH]4)cc3)[nH]c2-c2ccc(Br)cc2)cc1

fluorescence lifetime (in c1cc(-c2cccc(-n3c4ccccc4c4ccccc43)c2)cc(-n2c3ccccc3c3ccccc32)c1): 30 ns
SMILES: CC1(C)c2ccccc2N(c2ccc(-c3nc(C#N)c(C#N)nc3-c3ccc(N4c5ccccc5C(C)(C)c5ccccc54)cc3)cc2)c2ccccc21

The next lines start with the compound.

SMILES: O=C1CCCC2=C1CC1=C(CCCC1=O)N2NC(=O)c1ccc(O)cc1
fluorescence lifetime (in CC#N): 6.2 ns
fluorescence lifetime (in CC(C)=O): 5.6 ns
fluorescence lifetime (in CCCCCO): 6.5 ns
fluorescence lifetime (in CO): 4.8 ns
fluorescence lifetime (in ClC(Cl)Cl): 8.2 ns
fluorescence lifetime (in ClCCl): 5.4 ns

SMILES: O=C([O-])c1ccccc1-c1c2cc(I)c(=O)c(I)c-2oc2c(I)c([O-])c(I)cc12
fluorescence lifetime (in CC(C)O): 0.66 ns
fluorescence lifetime (in CCO): 0.565 ns
fluorescence lifetime (in CO): 0.5 ns
fluorescence lifetime (in O): 0.115 ns

SMILES: COC(=O)C12N=N[C@](C(=O)OC)(C3C4C=CC(C4)C31)[C@@H]1C[C@H]12 (stereo partly specified)
fluorescence lifetime (in CC#N): 131 ns

SMILES: CC1(C)c2ccccc2N(c2ccc(C(=C(C#N)C#N)c3ccc(N4c5ccccc5C(C)(C)c5ccccc54)cc3)cc2)c2ccccc21
fluorescence lifetime (in Cc1ccccc1): 3.1 ns

SMILES: CC1(C)c2ccccc2-c2cc3c4cc(-n5c6ccccc6c6ccccc65)ccc4n(-c4ccc(-c5nc(-c6ccccc6)nc(-c6ccccc6)n5)cc4)c3cc21
fluorescence lifetime [1]: 34 ns

SMILES: CCN(CC)c1ccc2cc(C#N)/c(=N\C(=O)c3ccc(F)cc3)oc2c1
fluorescence lifetime (in CCO): 3 ns
fluorescence lifetime (in ClCCl): 3.8 ns

SMILES: CCCCN1C(=O)c2cc(Oc3ccc(C(C)(C)C)cc3)c3c4c(Oc5ccc(C(C)(C)C)cc5)cc5c(=O)n6c(c7cc(Oc8ccc(C(C)(C)C)cc8)c(c8c(Oc9ccc(C(C)(C)C)cc9)cc(c2c38)C1=O)c4c57)=Cc1cccc[n+]1[B-]6(F)F
fluorescence lifetime (in C1CCOC1): 3.79 ns
fluorescence lifetime (in Cc1ccccc1): 4.1 ns
fluorescence lifetime (in ClCCl): 4.51 ns

SMILES: CCCCCCCCCCCCN1C(=O)c2ccc3c4ccc5c6c(ccc(c7ccc(c2c37)C1=O)c64)C(=O)NC5=O
fluorescence lifetime (in CN(C)C=O): 3 ns

SMILES: N#Cc1c(-n2c3ccc(-c4ccccc4)cc3c3cc(-c4ccccc4)ccc32)c(-n2c3ccc(-c4ccccc4)cc3c3cc(-c4ccccc4)ccc32)c(C#N)c(-n2c3ccc(-c4ccccc4)cc3c3cc(-c4ccccc4)ccc32)c1-n1c2ccc(-c3ccccc3)cc2c2cc(-c3ccccc3)ccc21
fluorescence lifetime (in Cc1ccccc1): 9 ns

SMILES: CN(C)c1ccc2nc(/C=C/c3cc4c5c(c3)CCCN5CCC4)c(=O)oc2c1
fluorescence lifetime (in C1COCCO1): 2.9 ns
fluorescence lifetime (in CC#N): 0.22 ns
fluorescence lifetime (in CC(C)=O): 0.8 ns
fluorescence lifetime (in CCCCCCC): 2.02 ns
fluorescence lifetime (in CCOC(C)=O): 2.4 ns
fluorescence lifetime (in CN(C)C=O): 0.18 ns
fluorescence lifetime (in CS(C)=O): 0.32 ns
fluorescence lifetime (in Cc1ccccc1): 2.6 ns
fluorescence lifetime (in ClC(Cl)Cl): 1.35 ns
fluorescence lifetime (in ClCCl): 1.35 ns

SMILES: C=Cc1cc(OC)cc(OC)c1
fluorescence lifetime (in C1CCCCC1): 3.8 ns
fluorescence lifetime (in CC#N): 6.9 ns

SMILES: CCCCOC(=O)c1cc(Cl)c2c3c(Cl)cc4c5c(cc(Cl)c(c6c(Oc7ccc(C(=O)OC)cc7)cc(C(=O)OCCCC)c1c26)c53)C(=O)N(c1c(C(C)C)cccc1C(C)C)C4=O
fluorescence lifetime (in Cc1ccccc1): 6.09 ns

SMILES: COC(=O)C(NC(=O)OC(C)(C)C)c1ccc2oc(-c3ccc(N(C)C)cc3OC)nc2c1 (stereo unspecified)
fluorescence lifetime (in CC1CCCCC1): 1.25 ns
fluorescence lifetime (in CC#N): 1.24 ns
fluorescence lifetime (in CO): 1.32 ns

SMILES: c1cc2ccc3ccc4cc3c2cc1c1ccc2ccc3ccc(cc3c2c1)c1ccc2ccc3ccc4cc3c2c1
fluorescence lifetime (in Cc1ccccc1): 6.5 ns

SMILES: O=C([O-])COc1cc(NC(=O)c2ccc(-c3c4cc(Cl)c(=O)cc-4oc4cc(O)c(Cl)cc34)c(C(=O)[O-])c2)ccc1N(CC(=O)[O-])CC(=O)[O-]
fluorescence lifetime (in O): 1.21 ns

SMILES: Fc1nc(F)c(F)c(C#Cc2cc3c(cc2C#Cc2c(F)c(F)nc(F)c2F)OC2(CCCCC2)O3)c1F
fluorescence lifetime (in CC#N): 5.3 ns

SMILES: COc1ccc(/C=C/c2nc(N3CCOCC3)c3c([n+]2[O-])CCCC3)cc1
fluorescence lifetime (in ClCCl): 8.3 ns

SMILES: Cc1cc(C)c(B(c2c(C)cc(C)cc2C)c2ccc3ccc4cccc5ccc2c3c45)c(C)c1
fluorescence lifetime (in Cc1ccccc1): 3 ns

SMILES: COc1ccccc1
fluorescence lifetime (in C1CCCCC1): 11.1 ns

SMILES: F[B-]1(F)Oc2ccccc2-c2cc(-n3c4ccc(-c5ccccc5)cc4c4cc(-c5ccccc5)ccc43)cc[n+]21
fluorescence lifetime [1]: 6.3 ns

SMILES: Cc1cc(C2=Cc3cccc[n+]3[B-](F)(F)O2)ccc1N(C)C
fluorescence lifetime (in ClC(Cl)Cl): 2.74 ns

SMILES: CCCCCCn1c2cc(C(=O)OCC)ccc2c2c1c1ccc(C(=O)OCC)cc1n2CCCCCC
fluorescence lifetime (in CCCO): 6.3 ns
